How the values were obtained:
SMARCA4 = target: T1, SMARCA4 (Homo sapiens, UniProt P51532); test: SMARCA4 Western blot degradation in MV4-11 cells; assay type: cell-based; details: for Dmax: MV4-11, MV4-11 cells, read-out: SMARCA4 MSD MV411 degradation 24 h: average Dmax %; for Dmax / DC50: 24 h; for DC50 / SMARCA4 MSD MV411 degradation 24 h: average Dmax %: MV4-11 cells; for DC50: read-out: SMARCA4 MSD MV411 degradation 24 h: Mean external-Abs DC50
T1 construct: SMARCA2/SMARCA4 protein degradation selectivity in MV4-11 cells; endogenous in cells; host or cells: MV4-11
Protocol: Example 11. SMARCA2 and SMARCA4 Western Blot MV4-11 Degradation
Cells were seeded into 6-well plates (MV4-11:4×10^6 cells/well/1 ml) and 1 ml of 2× compound solution was added into the well to make the final concentration and the plates were mixed well and incubated for 24 hours (No cytotoxicity was observed). The cell were collected with media and spun at 3000 rpm for 5 minutes. The supernatant was aspirated and the well and the cells were washed with cold PBS once and combined for centrifugation again; the supernatant aspirated again. 200 uL pre-chilled RIPA lysis buffer (Boston BioProducts BP-115D) with protease/phosphatase inhibitor (Roche 05892791001/Roche 04906837001) was directly added into the tube to lyze the cells for 20 minutes on ice. The cell lysate were collected into EP tubes and spun at 13000 rpm for 20 minutes and 72 uL supernatant was transferred to a fresh EP tube containing 18 μL of 5× loading buffer (Beyotime Bio P0015) to make the loading samples. The samples were heated to 100° C. for 10 minutes and cooled to RT and microcentrifuged. 20 μL of samples were loaded onto SDS-PAGE gel (Novex, WG1402BOX) and the gel was run at 80 V for 20 minutes and 120 V for 1.5 hours. The samples were electrotransfer to a NC membrane using wet-transfer method with 250 mA for 2.5 hours. The membrane was blocked with LICOR blocking buffer (LI COR,927-50000) for 1 hour. The membrane was washed three times with TBST(CST #9997S), 5 minutes each. Incubation was performed with primary antibody prepared in blocking buffer with 0.1% Tween-20 (Solarbio, P8220) at 4° C. overnight (Anti-SMARCA2/BRM antibody (ab15597) 1:500; Anti-BRG1 antibody [EPR3912](ab108318) 1:1000; Rabbit anti-Bafl80 antibody [EPR15860](Abcam,ab196022) 1:1000; mouse anti-beta-Actin (8H10D10) (CST #3700) 1:10000). The membrane was washed three times with TBST, 5 minutes each. Incubation with secondary antibody was performed for 1 hour at RT (anti-rabbit IgG (Licor,926-32211) 1:5000; anti-mouse IgG (LI-COR, 926-68070) 1:5000). The membrane was washed three times with 5 minutes each and lastly the LiCOR was read.
The letter codes for SMARCA2/4 degradation potency (DC50) include: A (<1 nM), B (1-10 nM), C (>10-100 nM), and D (>100 nM). The letter codes for the percentage of SMARCA2/4 degradation after 24 hours (Dmax %) include: A (>90% degradation), B (>70-90% degradation), C (50-70% degradation), and D (<50% degradation). The letter codes of SMARCA2/4 selectivity include: A (>500 fold), B (>100-500 fold), C (10-100 fold), and D (<10 fold). Table 8. SMARCA2/4 Selectivity Results

SMARCA2 = SMARCA2 (Homo sapiens, UniProt P51531); test: SMARCA2 Western blot degradation in MV4-11 cells; assay type: cell-based; design: SMARCA2/SMARCA4 protein degradation selectivity in MV4-11 cells; endogenous in cells; host or cells: MV4-11; details: for Dmax: MV4-11, MV4-11 cells, read-out: SMARCA2 MSD MV411 degradation 24 h: average Dmax %; for Dmax / DC50 / SMARCA2 MSD MV411 degradation 24 h: average Dmax %: 24 h; for DC50 / Selectivity in MV411 / SMARCA2 MSD MV411 degradation 24 h: average Dmax %: MV4-11 cells; for DC50: read-out: SMARCA2 MSD MV411 degradation 24 h: Mean external-Abs DC50; for Selectivity in MV411: SMARCA2/4 selectivity
SMARCA2, sequence (P51531 whole entry): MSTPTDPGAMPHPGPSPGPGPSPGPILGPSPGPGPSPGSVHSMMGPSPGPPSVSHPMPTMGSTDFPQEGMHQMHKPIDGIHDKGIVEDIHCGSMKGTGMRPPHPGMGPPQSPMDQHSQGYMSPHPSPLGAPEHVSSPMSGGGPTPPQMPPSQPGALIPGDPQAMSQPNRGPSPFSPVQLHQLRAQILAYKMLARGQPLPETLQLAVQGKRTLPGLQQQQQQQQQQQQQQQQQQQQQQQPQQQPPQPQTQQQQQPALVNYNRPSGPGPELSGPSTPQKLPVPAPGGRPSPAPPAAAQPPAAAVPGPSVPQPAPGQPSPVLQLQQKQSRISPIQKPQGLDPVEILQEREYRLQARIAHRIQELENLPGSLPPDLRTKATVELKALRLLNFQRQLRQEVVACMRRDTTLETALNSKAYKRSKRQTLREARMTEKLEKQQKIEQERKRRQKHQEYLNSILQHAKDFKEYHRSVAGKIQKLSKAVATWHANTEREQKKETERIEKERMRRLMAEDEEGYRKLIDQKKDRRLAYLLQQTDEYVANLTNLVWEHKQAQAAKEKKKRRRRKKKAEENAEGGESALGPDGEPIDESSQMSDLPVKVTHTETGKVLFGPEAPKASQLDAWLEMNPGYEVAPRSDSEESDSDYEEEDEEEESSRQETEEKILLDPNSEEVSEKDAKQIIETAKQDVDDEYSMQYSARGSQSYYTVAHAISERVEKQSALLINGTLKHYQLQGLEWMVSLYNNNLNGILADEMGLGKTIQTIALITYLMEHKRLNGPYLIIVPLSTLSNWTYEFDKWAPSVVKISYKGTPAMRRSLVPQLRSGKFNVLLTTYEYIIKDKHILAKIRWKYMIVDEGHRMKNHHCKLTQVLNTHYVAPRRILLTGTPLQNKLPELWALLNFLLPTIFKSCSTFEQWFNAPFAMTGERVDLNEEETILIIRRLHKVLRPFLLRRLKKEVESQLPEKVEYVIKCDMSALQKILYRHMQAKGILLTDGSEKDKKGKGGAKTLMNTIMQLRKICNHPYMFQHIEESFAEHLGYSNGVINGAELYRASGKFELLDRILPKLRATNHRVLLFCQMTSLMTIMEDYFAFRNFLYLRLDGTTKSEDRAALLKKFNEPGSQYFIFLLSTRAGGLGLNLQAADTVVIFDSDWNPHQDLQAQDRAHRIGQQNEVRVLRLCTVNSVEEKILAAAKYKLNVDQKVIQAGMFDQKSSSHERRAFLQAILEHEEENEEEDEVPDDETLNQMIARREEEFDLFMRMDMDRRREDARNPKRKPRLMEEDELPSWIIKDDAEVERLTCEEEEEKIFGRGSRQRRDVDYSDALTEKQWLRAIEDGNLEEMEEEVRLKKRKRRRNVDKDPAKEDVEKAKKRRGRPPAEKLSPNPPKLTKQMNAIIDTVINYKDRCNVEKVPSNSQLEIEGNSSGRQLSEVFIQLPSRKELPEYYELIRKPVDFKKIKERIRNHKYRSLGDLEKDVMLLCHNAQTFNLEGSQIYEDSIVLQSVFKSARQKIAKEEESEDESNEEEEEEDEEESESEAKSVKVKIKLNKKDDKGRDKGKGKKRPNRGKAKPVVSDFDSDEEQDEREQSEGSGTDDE

T1 sequence (P51532 whole entry): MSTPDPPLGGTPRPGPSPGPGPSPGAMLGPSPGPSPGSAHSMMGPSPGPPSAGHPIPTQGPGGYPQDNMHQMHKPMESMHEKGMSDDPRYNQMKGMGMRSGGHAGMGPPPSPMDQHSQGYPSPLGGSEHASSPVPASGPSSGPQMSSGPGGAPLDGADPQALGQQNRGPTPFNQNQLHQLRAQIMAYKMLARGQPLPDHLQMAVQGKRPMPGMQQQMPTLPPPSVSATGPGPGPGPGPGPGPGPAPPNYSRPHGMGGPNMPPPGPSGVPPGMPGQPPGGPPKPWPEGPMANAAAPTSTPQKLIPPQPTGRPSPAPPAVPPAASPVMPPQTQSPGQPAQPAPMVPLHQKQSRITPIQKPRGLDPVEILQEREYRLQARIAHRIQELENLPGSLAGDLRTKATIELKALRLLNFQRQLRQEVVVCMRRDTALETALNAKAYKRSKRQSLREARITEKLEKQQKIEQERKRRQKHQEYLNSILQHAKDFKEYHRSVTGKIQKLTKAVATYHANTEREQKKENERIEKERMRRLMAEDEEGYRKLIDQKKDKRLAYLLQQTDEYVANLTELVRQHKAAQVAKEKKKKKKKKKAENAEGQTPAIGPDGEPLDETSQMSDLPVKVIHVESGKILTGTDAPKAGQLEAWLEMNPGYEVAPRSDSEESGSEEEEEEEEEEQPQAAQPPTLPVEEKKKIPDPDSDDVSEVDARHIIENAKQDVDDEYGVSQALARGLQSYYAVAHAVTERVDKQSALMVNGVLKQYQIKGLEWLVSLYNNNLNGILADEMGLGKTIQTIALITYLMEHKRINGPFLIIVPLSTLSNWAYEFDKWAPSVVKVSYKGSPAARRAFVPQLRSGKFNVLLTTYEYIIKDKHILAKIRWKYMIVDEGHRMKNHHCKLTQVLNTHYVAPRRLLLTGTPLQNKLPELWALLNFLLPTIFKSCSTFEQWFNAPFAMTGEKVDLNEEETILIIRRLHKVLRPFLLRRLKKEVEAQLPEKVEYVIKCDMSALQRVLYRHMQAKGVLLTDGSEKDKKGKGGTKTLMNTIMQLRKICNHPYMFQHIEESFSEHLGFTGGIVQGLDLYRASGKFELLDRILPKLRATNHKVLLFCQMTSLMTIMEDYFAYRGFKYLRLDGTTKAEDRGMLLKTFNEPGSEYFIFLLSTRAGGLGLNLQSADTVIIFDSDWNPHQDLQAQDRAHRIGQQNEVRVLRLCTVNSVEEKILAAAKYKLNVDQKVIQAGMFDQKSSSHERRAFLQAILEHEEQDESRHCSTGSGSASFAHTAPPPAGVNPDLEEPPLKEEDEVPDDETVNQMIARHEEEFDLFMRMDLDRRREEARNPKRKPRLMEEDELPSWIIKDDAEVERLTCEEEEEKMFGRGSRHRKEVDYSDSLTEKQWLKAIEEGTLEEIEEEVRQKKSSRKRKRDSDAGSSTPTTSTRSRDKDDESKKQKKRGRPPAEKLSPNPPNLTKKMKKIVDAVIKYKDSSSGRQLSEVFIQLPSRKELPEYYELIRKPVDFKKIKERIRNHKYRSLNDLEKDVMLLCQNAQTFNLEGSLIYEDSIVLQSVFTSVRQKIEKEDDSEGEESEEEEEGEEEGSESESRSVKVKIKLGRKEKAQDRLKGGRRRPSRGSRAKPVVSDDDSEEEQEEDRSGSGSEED

Dmax (SMARCA4) [%] | DC50 (SMARCA4) [nM] | Dmax (SMARCA2) [%] | DC50 (SMARCA2) [nM] | Selectivity in MV411 (SMARCA2) | SMARCA4 MSD MV411 degradation 24 h: average Dmax % (SMARCA4) | SMARCA2 MSD MV411 degradation 24 h: average Dmax % (SMARCA2) | Structure (SMILES)
70 to 90 | 10 to 100 | 70 to 90 | < 1 | C (C (10-100 fold)) |  |  | C#Cc1ccc(CNC(=O)[C@@H]2C[C@@H](O)CN2C(=O)[C@@H](NC(=O)[C@H]2CCC3(CC2)C[C@H](N2CCC(c4cnc(N5CCN6c7cc(-c8ccccc8O)nnc7NC[C@H]6C5)nc4)CC2)C3)C(C)(C)C)cc1 (single isomer, unassigned) [I-25]
 | > 100 |  | 1 to 10 | B (B (>100-500 fold)) | C (C (50-70% degradation)) | B (B (>70-90% degradation)) | C#Cc1ccc(CNC(=O)[C@@H]2C[C@@H](O)CN2C(=O)[C@@H](NC(=O)[C@H]2CCC3(CC2)C[C@H](N2CCC(c4cnc(N5CCN6c7cc(-c8ccccc8O)nnc7NC[C@H]6C5)nc4)CC2)C3)C(C)(C)C)cc1 (single isomer, unassigned) [I-26]
70 to 90 | > 100 | 50 to 70 | 10 to 100 | C (C (10-100 fold)) |  |  | Cc1ncsc1-c1ccc(CNC(=O)[C@@H]2C[C@@H](O)CN2C(=O)[C@@H](NC(=O)C2(F)CC2)C(C)(C)C)c(OC2CCN(Cc3cnc(N4CCc5[nH]c6nnc(-c7ccccc7O)cc6c5[C@H]4C)nc3)CC2)c1 (single isomer, unassigned) [I-42]
< 50 | > 100 | < 50 | > 100 | C (C (10-100 fold)) |  |  | Cc1ncsc1-c1ccc(CNC(=O)[C@@H]2C[C@@H](O)CN2C(=O)[C@@H](NC(=O)C2(F)CC2)C(C)(C)C)c(OC2CCN(Cc3cnc(N4CCc5[nH]c6nnc(-c7ccccc7O)cc6c5[C@@H]4C)nc3)CC2)c1 (single isomer, unassigned) [I-43]
> 90 | 1 to 10 | > 90 | < 1 | D (D (<10 fold)) |  |  | Cc1ncsc1-c1ccc(CNC(=O)[C@@H]2C[C@@H](O)CN2C(=O)[C@@H](NC(=O)C2(F)CC2)C(C)(C)C)c(OCCCCN2CCN(c3cnc(N4CCN5c6cc(-c7ccccc7O)nnc6NC[C@H]5C4)nc3)CC2)c1 (single isomer, unassigned) [I-45]
> 90 | 1 to 10 | > 90 | < 1 | D (D (<10 fold)) |  |  | Cc1ncsc1-c1ccc(CNC(=O)[C@@H]2C[C@@H](O)CN2C(=O)[C@@H](NC(=O)C2(F)CC2)C(C)(C)C)c(OCCCCN2CCC(c3ccnc(N4CCN5c6cc(-c7ccccc7O)nnc6NC[C@H]5C4)n3)CC2)c1 (single isomer, unassigned) [I-46]
70 to 90 | 10 to 100 | > 90 | 1 to 10 | C (C (10-100 fold)) |  |  | Cc1ncsc1-c1ccc(CNC(=O)[C@@H]2C[C@@H](O)CN2C(=O)[C@H](c2cc(N3CC4(CC(N5CCC(c6cnc(N7CCN8c9cc(-c%10ccccc%10O)nnc9NC[C@H]8C7)nc6)CC5)C4)C3)no2)C(C)C)cc1 (single isomer, unassigned) [I-54]
> 90 | < 1 | > 90 | < 1 | D (D (<10 fold)) |  |  | Cc1ncsc1-c1ccc(CNC(=O)[C@@H]2C[C@@H](O)CN2C(=O)[C@@H](c2cc(N3CC4(CC(N5CCC(c6cnc(N7CCN8c9cc(-c%10ccccc%10O)nnc9NC[C@H]8C7)nc6)CC5)C4)C3)no2)C(C)C)cc1 (single isomer, unassigned) [I-55]
50 to 70 | > 100 | 70 to 90 | 1 to 10 | A (A (>500 fold)) |  |  | C#Cc1ccc([C@H](C)NC(=O)[C@@H]2C[C@@H](O)CN2C(=O)[C@@H](NC(=O)[C@H]2CCC3(CC2)C[C@H](N2CCC(c4cnc(N5CCN6c7cc(-c8ccccc8O)nnc7NC[C@H]6C5)nc4)CC2)C3)C(C)(C)C)cc1 (single isomer, unassigned) [I-56]
 | > 100 |  | 1 to 10 | B (B (>100-500 fold)) | D (D (<50% degradation)) | B (B (>70-90% degradation)) | C#Cc1ccc([C@H](C)NC(=O)[C@@H]2C[C@@H](O)CN2C(=O)[C@@H](NC(=O)[C@H]2CCC3(CC2)C[C@H](N2CCC(c4cnc(N5CCN6c7cc(-c8ccccc8O)nnc7NC[C@H]6C5)nc4)CC2)C3)C(C)(C)C)cc1 (single isomer, unassigned) [I-57]
70 to 90 | 10 to 100 | > 90 | 1 to 10 | C (C (10-100 fold)) |  |  | Cc1ncsc1-c1ccc(CNC(=O)[C@@H]2C[C@@H](O)CN2C(=O)[C@@H](NC(=O)[C@H]2CC3(CC[C@H](N4CCC(c5cnc(N6CCN7c8cc(-c9ccccc9O)nnc8NC[C@H]7C6)nc5)CC4)CC3)C2)C(C)(C)C)cc1 (single isomer, unassigned) [I-65]
 | > 100 |  | 10 to 100 | B (B (>100-500 fold)) | D (D (<50% degradation)) | B (B (>70-90% degradation)) | Cc1ncsc1-c1ccc(CNC(=O)[C@@H]2C[C@@H](O)CN2C(=O)[C@@H](NC(=O)[C@H]2CC3(CC[C@H](N4CCC(c5cnc(N6CCN7c8cc(-c9ccccc9O)nnc8NC[C@H]7C6)nc5)CC4)CC3)C2)C(C)(C)C)cc1 (single isomer, unassigned) [I-66]
< 50 | > 100 | 70 to 90 | 1 to 10 | A (A (>500 fold)) |  |  | Cc1ncsc1-c1ccc(CNC(=O)[C@@H]2C[C@@H](O)CN2C(=O)[C@@H](NC(=O)[C@H]2CCC3(CC2)C[C@H](N2CCC(c4cnc(N5CCN6c7cc(-c8ccccc8O)nnc7NC[C@H]6C5)nc4)CC2)C3)C(C)(C)C)cc1 (single isomer, unassigned) [I-70]
< 50 | > 100 | < 50 | > 100 | C (C (10-100 fold)) |  |  | CC(C)C(C(=O)N1C[C@H](O)C[C@H]1C(=O)NCc1ccc(Cl)cc1)c1cc(N2CC3(CC(N4CCC(c5cnc(N6CCN7c8cc(-c9ccccc9O)nnc8NC[C@H]7C6)nc5)CC4)C3)C2)no1 (stereo partly shown) [I-17]
< 50 | > 100 | < 50 | > 100 | C (C (10-100 fold)) |  |  | CC(C)C(C(=O)N1C[C@H](O)C[C@H]1C(=O)NCc1ccc(C#N)cc1)c1cc(N2CC3(CC(N4CCC(c5cnc(N6CCN7c8cc(-c9ccccc9O)nnc8NC[C@H]7C6)nc5)CC4)C3)C2)no1 (stereo partly shown) [I-20]
< 50 | > 100 | 70 to 90 | 10 to 100 | C (C (10-100 fold)) |  |  | C#Cc1ccc(CNC(=O)[C@@H]2C[C@@H](O)CN2C(=O)[C@@H](NC(=O)[C@H]2CC[C@H](c3ccc(-c4cnc(N5CCN6c7cc(-c8ccccc8O)nnc7NC[C@H]6C5)nc4)cc3)CC2)C(C)(C)C)cc1 [I-23]
> 90 | 1 to 10 | > 90 | < 1 | D (D (<10 fold)) |  |  | C#Cc1ccc(CNC(=O)[C@@H]2C[C@@H](O)CN2C(=O)[C@@H](NC(=O)[C@H]2CC[C@@H](c3ccc(-c4cnc(N5CCN6c7cc(-c8ccccc8O)nnc7NC[C@H]6C5)nc4)cc3)CC2)C(C)(C)C)cc1 [I-24]
